≈ marks a conversion by molar mass, not a printed value.
Columns and labels:
[1] = tested on: S. aureus 209P; assay: Antibacterial action, MIC against S. aureus 209P (standard method of the Japanese Chemotherapy Society); format: cell-based; settings: Staphylococcus aureus, read-out: minimum growth-inhibition concentration (MIC)
Method: (§1) A minimum growth-inhibition concentration (MIC: μg/ml) was measured according to the standard method of the Japanese Chemotherapy Society (CHEMOTHERAPY, 29 (1), 76, 1981).

[2] = tested on: P. aeruginosa IFO3445; assay: Antibacterial action, MIC against P. aeruginosa IFO3445 (standard method of the Japanese Chemotherapy Society); format: cell-based; settings: Pseudomonas aeruginosa, read-out: minimum growth-inhibition concentration (MIC)
Method: as §1

[3] = tested on: female ICR mouse; assay: Phototoxicity test, ear abnormality after UV irradiation; format: in vivo; settings: 40 mg/kg i.v., UV 320-400 nm 4 hours; for Frequency (ear abnormality), 0 hour / Frequency (ear abnormality), 24 hours / Frequency (ear abnormality), 48 hours: affected/total mice; for Rating (ear abnormality), 0 hour / Rating (ear abnormality), 24 hours / Rating (ear abnormality), 48 hours: point 0 no abnormality, 1 light, 2 medium erythema, 3 heavy erythema or edema
Method: After a compound to be tested (40 mg/kg/10 ml) was intravenously administered to a female ICR mouse (5-6 weeks old), ultraviolet radiation (320 to 400 nm, 1.8 mW/cm^2 /sec.) was irradiated for 4 hours. […] Ear abnormality was rated point 0 for no abnormality, point 1 for light erythema, point 2 for medium erythema, and point 3 for heavy erythema or edema.

[4] = tested on: CHL cells; assay: Chromosomal aberration test, CHL cells; format: cell-based; settings: 0 to 200 μg/ml; metabolic activation method (S9) and direct method 24 and 48 hours
Method: CHL cells (0.2 to 2×10^5 cells/well) suspended in an Eagle's MEM medium having 10% bovine fetal serum added thereto were incubated in a 60-mm dish. After the cells were cultured at 37° C. for 4 to 72 hours in the presence of 5% CO2, the medium was replaced by a medium containing an agent in a different concentration and culturing was continued under the same conditions. In the case of a metabolic activation method (S9 added medium), after 6 hours of culturing, the medium was replaced by a medium free of an agent and S9 and culturing was continued for a further 18 hours. In the case of a direct method, the cells were cultured in two ways for 24 hours and 48 hours. At the end of culturing, a chromosome sample was prepared according to the method prescribed by the Japan Surrounding Mutagen society.

SMILES | MIC [1] [mg/L] | MIC [2] [mg/L] | Frequency (ear abnormality), 0 hour [3] | Rating (ear abnormality), 0 hour [3] | Frequency (ear abnormality), 24 hours [3] | Rating (ear abnormality), 24 hours [3] | Frequency (ear abnormality), 48 hours [3] | Rating (ear abnormality), 48 hours [3] | Chromosomal aberration (rate of structural aberration) [4]
Nc1cc(-n2cc(C(=O)O)c(=O)c3cc(F)c(N4CC[C@H](N)C4)nc32)c(F)cc1F [Example 48, 1-(3-amino-4,6-difluorophenyl)-7-[(3S)-3-aminopyrrolidin-1-yl]-6-fluoro-1,4-dihydro-4-oxo-1,8-naphthyridine-3-carboxylic acid] | 0.025 (≈ 0.0596 µM) | 0.1 (≈ 0.238 µM) | 0/3 | 0 | 0/3 | 0 | 0/3 | 0 | negative
C[C@@H]1CN(c2nc3c(cc2F)c(=O)c(C(=O)O)cn3-c2cc(N)c(F)cc2F)C[C@H]1N [Example 56, 1-(3-amino-4,6-difluorophenyl)-7-[(3S,4R)-3-amino-4-methylpyrrolidin-1-yl]-6-fluoro-1,4-dihydro-4-oxo-1,8-naphthyridine-3-carboxylic acid] | 0.025 (≈ 0.0577 µM) | 0.1 (≈ 0.231 µM) |  |  |  |  |  |  | 
Nc1cc(-n2cc(C(=O)O)c(=O)c3cc(F)c(N4CC[C@H](N)C4)cc32)c(F)cc1F [Example 60, 1-(3-amino-4,6-difluorophenyl)-7-[(3S)-3-aminopyrrolidin-1-yl]-6-fluoro-1,4-dihydro-4-oxoquinoline-3-carboxylic acid] | 0.013 (≈ 0.0311 µM) | 0.1 (≈ 0.239 µM) |  |  |  |  |  |  | 
Nc1cc(-n2cc(C(=O)O)c(=O)c3cc(F)c(N4CC(N)C4)nc32)c(F)cc1F [Example 117, 7-(3-aminoazetidin-1-yl)-1-(3-amino-4,6-difluorophenyl)-6-fluoro-1,4-dihydro-4-oxo-1,8-naphthyridine-3-carboxylic acid] | 0.05 (≈ 0.123 µM) | 0.1 (≈ 0.247 µM) | 0/3 | 0 | 0/3 | 0 | 0/3 | 0 | negative
Nc1cc(-n2cc(C(=O)O)c(=O)c3cc(F)c(N4CC(N)C4)c(F)c32)c(F)cc1F [Example 150, 7-(3-aminoazetidin-1-yl)-1-(3-amino-4,6-difluorophenyl)-6,8-difluoro-1,4-dihydro-4-oxoquinoline-3-carboxylic acid] | 0.025 (≈ 0.0592 µM) | 0.2 (≈ 0.474 µM) | 0/3 | 0 | 0/3 | 0 | 0/3 | 0 | 
Nc1cc(-n2cc(C(=O)O)c(=O)c3cc(F)c(N4CC(N)C4)c(Cl)c32)c(F)cc1F [Example 152, 7-(3-aminoazetidin-1-yl)-1-(3-amino-4,6-difluorophenyl)-8-chloro-6-fluoro-1,4-dihydro-4-oxoquinoline-3-carboxylic acid] | < 0.013 | 0.05 (≈ 0.114 µM) | 0/3 | 0 | 0/3 | 0 | 0/3 | 0 | 
CC1(N)CN(c2c(F)cc3c(=O)c(C(=O)O)cn(-c4cc(N)c(F)cc4F)c3c2Cl)C1 [Example 156, 1-(3-amino-4,6-difluorophenyl)-7-(3-amino-3-methylazetidin-1-yl)-8-chloro-6-fluoro-1,4-dihydro-4-oxoquinoline-3-carboxylic acid] | < 0.013 | 0.1 (≈ 0.221 µM) |  |  |  |  |  |  | 
CNC1CN(c2c(F)cc3c(=O)c(C(=O)O)cn(-c4cc(N)c(F)cc4F)c3c2Cl)C1 [Example 157, 1-(3-amino-4,6-difluorophenyl)-8-chloro-6-fluoro-7-(3-methylaminoazetidin-1-yl)-1,4-dihydro-4-oxoquinoline-3-carboxylic acid] | < 0.013 | 0.1 (≈ 0.221 µM) |  |  |  |  |  |  | 
Nc1cc(-n2cc(C(=O)O)c(=O)c3c(O)c(F)c(N4CC[C@H](N)C4)cc32)c(F)cc1F [Example 160, 1-(3-amino-4,6-difluorophenyl)-7-[(3S)-3-aminopyrrolidin-1-yl]-6-fluoro-5-hydroxy-1,4-dihydro-4-oxoquinoline-3-carboxylic acid] | 0.025 (≈ 0.0576 µM) | 0.2 (≈ 0.46 µM) | 0/3 | 0 | 0/3 | 0 | 0/3 | 0 | 
Cc1c(F)c(N2CC[C@H](N)C2)cc2c1c(=O)c(C(=O)O)cn2-c1cc(N)c(F)cc1F [Example 162, 1-(3-amino-4,6-difluorophenyl)-7-[(3S)-3-aminopyrrolidin-1-yl]-6-fluoro-5-methyl-1,4-dihydro-4-oxoquinoline-3-carboxylic acid] | 0.013 (≈ 0.0301 µM) | 0.2 (≈ 0.463 µM) |  |  |  |  |  |  | 
NC1CCN(c2nc3c(cc2F)c(=O)c(C(=O)O)cn3-c2ccc(F)cc2F)C1 (stereo not drawn) [tosufloxacin, reference compound] | 0.05 (≈ 0.124 µM) | 0.39 (≈ 0.965 µM) | 4/5 | 1.8 | 4/5 | 0.8 | 1/5 | 0.2 | 

Source: patent US5910498A, “Pyridonecarboxylic acid derivatives or salts thereof and antibacterial agents comprising the same as active ingredient” (Wakunaga Seiyaku Kabushiki Kaisha, priority 1994, dated 1999)
